Test results as given in the NIST ThermoML archive (doi:10.1021/je200350a).
Numbers after ± are expanded uncertainties.

Conditions: 101.33 kPa, Liquid; for viscosity: Capillary tube (Ostwald / Ubbelohde) method

Structure (SMILES) | mass density (293.15 K) [kg/m3] | viscosity (293.15 K) [mPa·s] | mass density (298.15 K) [kg/m3] | viscosity (298.15 K) [mPa·s] | mass density (303.15 K) [kg/m3] | viscosity (303.15 K) [mPa·s] | mass density (308.15 K) [kg/m3] | viscosity (308.15 K) [mPa·s]
CCCCBr [1-bromobutane] | 1279.1 ± 1.5 | 0.6473 ± 0.0064 | 1272.2 ± 1.4 | 0.6096 ± 0.0061 | 1265.2 ± 1.4 | 0.5811 ± 0.0058 | 1257.2 ± 1.4 | 0.55 ± 0.0056
CC1CCCCC1 [methylcyclohexane] | 770.1 ± 1.2 | 0.7293 ± 0.0071 | 766.7 ± 1.2 | 0.6827 ± 0.0067 | 761.8 ± 1.2 | 0.6385 ± 0.0063 | 757.6 ± 1.2 | 0.5997 ± 0.006
O=[N+]([O-])c1ccccc1 [nitrobenzene] | 1202.2 ± 1.2 | 1.983 ± 0.018 | 1197.2 ± 1.2 | 1.809 ± 0.016 | 1191.5 ± 1.2 | 1.659 ± 0.015 | 1186.4 ± 1.2 | 1.529 ± 0.014
